Patent US20050124056A1, “Novel oxidase” (priority 2002, published 2005)

How the values were obtained:
NOX1-b = NOX1-b (Homo sapiens, UniProt Q9Y5S8); conditions: 1 μM added 30 minutes before the addition of cytochrome C; NOX1-b expressing NIH3T3 cells
Method: Using the NOX1-b expressing cells shown in Example 3, the ROS productivity was measured by a cytochrome C reduction method. In order to measure ROS by the cytochrome C reduction method, vacant vector expressing cells and NOX1-b expressing cells were respectively dispensed in 0.5×10^6 cells/100 μl/well portions into a 96 well multi-well plate for cell culture (to be referred to as multi-well plate). About 12 hours thereafter, 4.62 mg/ml of cytochrome C was added and mixed in 100 μl/well portions under respective conditions, and then the multi-well plate was set on a plate reader to periodically measurement of absorbance at 550 nm.

[1] = tested on: COX-2 mRNA in NOX1-b expressing cells; conditions: final concentration of 1 μM, RT-PCR 3 hours thereafter; EtBr staining
Method: Using the mRNA extraction method shown in Example 1, respective cDNA samples were prepared from the vacant vector expressing cells and NOX1-b expressing cells. By synthesizing probe primers coding for the COX-2-specific sequences represented by SEQ ID NO:9 and SEQ ID NO:10, an RT-PCT reaction of 94° C. for 1 minute and 45 cycles consisting of 94° C. for 10 seconds, 55° C. for 20 seconds and 72° C. for 30 seconds, was carried out on each of the vacant vector expressing cell- and NOX1-b expressing cells-derived samples using a DNA polymerase (r Taq DNA polymerase; mfd. by Toyobo).

[2] = tested on: TNF-α mRNA in NOX1-b expressing cells; conditions: pretreated for 3 hours with 1 μM; RT-PCR, EtBr staining
Method: On each of the cDNA samples prepared in Example 6 and using a DNA polymerase (r Taq DNA polymerase; mfd. by Toyobo), RT-PCR reaction of 94° C. for 1 minute, 45 cycles of consisting of 94° C. for 10 seconds and 55° C. for 20 seconds and 72° C. for 30 seconds, was carried out.

Chain of NOX1-b (Q9Y5S8 1-515 isoform Q9Y5S8-3): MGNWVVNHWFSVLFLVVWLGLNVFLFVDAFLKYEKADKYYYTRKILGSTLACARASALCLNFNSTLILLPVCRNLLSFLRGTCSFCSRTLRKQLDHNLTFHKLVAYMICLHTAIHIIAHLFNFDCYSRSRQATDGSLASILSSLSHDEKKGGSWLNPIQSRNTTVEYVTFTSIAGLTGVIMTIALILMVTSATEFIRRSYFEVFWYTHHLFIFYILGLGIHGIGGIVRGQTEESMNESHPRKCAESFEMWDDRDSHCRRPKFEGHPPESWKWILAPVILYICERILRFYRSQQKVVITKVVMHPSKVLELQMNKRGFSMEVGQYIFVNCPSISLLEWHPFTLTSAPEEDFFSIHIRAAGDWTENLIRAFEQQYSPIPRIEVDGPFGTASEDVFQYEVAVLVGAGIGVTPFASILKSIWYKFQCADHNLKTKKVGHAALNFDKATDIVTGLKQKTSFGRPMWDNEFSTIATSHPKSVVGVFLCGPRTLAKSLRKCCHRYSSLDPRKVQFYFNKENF
Chain of NOX1-b (Q61462 whole entry partner): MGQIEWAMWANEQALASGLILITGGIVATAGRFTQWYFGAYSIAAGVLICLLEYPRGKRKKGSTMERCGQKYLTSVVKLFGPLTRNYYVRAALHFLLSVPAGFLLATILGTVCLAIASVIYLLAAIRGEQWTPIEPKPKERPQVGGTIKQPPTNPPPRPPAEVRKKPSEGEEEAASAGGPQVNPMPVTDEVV

c1ccc2c(c1)[I+]c1ccccc1-2 [DPI, diphenylene iodonium chloride]
ROS producing activity (absorbance at 550 nm, integrated values after 1 hour) (NOX1-b): considerably inhibited
induction of COX-2 expression by NOX1-b expression [1]: inhibited
induction of TNF-α expression in NOX1-b expressing cells [2]: inhibited
